In US10144742B2 (Millennium Pharmaceuticals, Inc., priority 2014, dated 2018):
Where two headings read alike, the source gives them in different places.

Legend:
[1] = test system: PC3 cells; test: PC3 growth inhibition (Cell-titer glo, 72 hours); assay type: cell-based; conditions: Homo sapiens, PC-3, PC3 cells, 72 hours, Cell-titer glo, read-out: Percent Inhibition (PC3 growth inhibition); for inhibition at 1.667 µM: compound concentration 1.667 μM; for inhibition at 1 µM: compound concentration 1 μM
In short: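 PC3 cells in RPMI1640 seeded overnight at 37 °C, 5% CO2, then exposed to compound diluted in AIM serum-free medium for 72 h. Viability by CellTiter-Glo luminescence vs DMSO controls; single-concentration % remaining viability (1 μM or 1.667 μM), or GI50/LD50 from curves.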

[2] = molecular target: hNAMPT protein (Homo sapiens (Human), UniProt P43490); test: NAMPT enzyme assay (TR-FRET/HTRF, BodiPY ligand, anti 6His-Tb); assay type: binding; conditions: for IC50: NAMPT IC50 range class, read-out: IC50; for inhibition at 1 µM: read-out: Percent Inhibition
Chain of hNAMPT protein (P43490 whole entry): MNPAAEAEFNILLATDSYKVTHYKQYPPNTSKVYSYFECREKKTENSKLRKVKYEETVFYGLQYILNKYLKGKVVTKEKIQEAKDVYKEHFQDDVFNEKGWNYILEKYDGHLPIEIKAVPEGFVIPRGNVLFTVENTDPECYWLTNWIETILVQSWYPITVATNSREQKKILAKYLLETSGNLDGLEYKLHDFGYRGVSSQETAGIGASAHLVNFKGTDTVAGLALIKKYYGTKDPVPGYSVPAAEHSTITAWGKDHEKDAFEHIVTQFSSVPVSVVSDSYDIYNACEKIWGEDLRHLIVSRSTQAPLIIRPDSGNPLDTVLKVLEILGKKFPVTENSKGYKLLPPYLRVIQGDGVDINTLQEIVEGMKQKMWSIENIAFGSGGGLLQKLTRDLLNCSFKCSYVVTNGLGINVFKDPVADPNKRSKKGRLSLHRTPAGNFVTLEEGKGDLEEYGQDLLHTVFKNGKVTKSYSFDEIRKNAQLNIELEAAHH
In short: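 TR-FRET binding assay in which His-tagged human NAMPT with anti-6His-Tb is displaced by compound from a BodiPY ligand, incubated 1 h at rt in the dark. Excitation was at 320 nm, with the 520/486 nm emission ratio read. IC50 was fitted from inhibition relative to DMSO controls.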

Row | Compound | inhibition at 1.667 µM [1] [%] | IC50 [2] [nM] | inhibition at 1 µM ([2]; compound concentration 1 μM) [%] | inhibition at 1 µM [1] [%] | inhibition at 1 µM [2] [%]
1 | O=C(NCCCc1cn[nH]c1)c1ccc2nc(N3CCCCC3)c(-c3ccc(F)cc3)nc2c1 [Compound I-94, 3-(4-fluorophenyl)-2-(piperidin-1-yl)-N-[3-(1H-pyrazol-4-yl)propyl]quinoxaline-6-carboxamide] | 34 | < 100 | 92 |  | 
2 | O=C(NCCCn1ccnc1)c1ccc2nc(-c3ccccc3)c(-c3cccc(OC(F)(F)F)c3)nc2c1 [Compound I-95, N-[3-(1H-imidazol-1-yl)propyl]-2-phenyl-3-[3-(trifluoromethoxy)phenyl]quinoxaline-6-carboxamide] |  | 500 to 1000 | 61 | 1 | 
3 | O=C(NCCCn1ccnc1)c1ccc2nc(N3CCOCC3)c(-c3ccccc3)nc2c1 [Compound I-96, N-[3-(1H-imidazol-1-yl)propyl]-2-(morpholin-4-yl)-3-phenylquinoxaline-6-carboxamide] |  | 100 to 500 | 82 | 0 | 
4 | O=C(NCCCn1ccnc1)c1ccc2nc(-c3ccccc3)c(-c3ccc4[nH]ccc4c3)nc2c1 [Compound I-97, N-[3-(1H-imidazol-1-yl)propyl]-3-(1H-indol-5-yl)-2-phenylquinoxaline-6-carboxamide] |  | 500 to 1000 | 58 | 1 | 
5 | COc1ccc(-c2nc3ccc(C(=O)NCCCn4ccnc4)cc3nc2-c2ccccc2)cc1 [Compound I-99, N-[3-(1H-imidazol-1-yl)propyl]-2-(4-methoxyphenyl)-3-phenylquinoxaline-6-carboxamide] |  | 100 to 500 | 75 | -8 | 
6 | O=C(NCCCn1ccnc1)c1ccc2nc(N3CCCC(O)C3)c(-c3ccccc3)nc2c1 (stereo not drawn) [Compound I-100, 2-(3-hydroxypiperidin-1-yl)-N-[3-(1H-imidazol-1-yl)propyl]-3-phenylquinoxaline-6-carboxamide] |  | 100 to 500 | 85 | -7 | 
7 | CS(=O)(=O)C1CCN(c2nc3cc(C(=O)NCCCn4ccnc4)ccc3nc2-c2ccccc2)C1 (stereo not drawn) [Compound I-101, N-[3-(1H-imidazol-1-yl)propyl]-3-[3-(methylsulfonyl)pyrrolidin-1-yl]-2-phenylquinoxaline-6-carboxamide] |  | 2000 to 10000 | 16 | 7 | 
8 | O=C(NCCc1ncc[nH]1)c1ccc2nc(Cl)c(-c3ccc(F)cc3)nc2c1 [Compound I-102, 2-chloro-3-(4-fluorophenyl)-N-[2-(1H-imidazol-2-yl)ethyl]quinoxaline-6-carboxamide] | > 99 | 500 to 1000 | 38 |  | 
9 | O=C(NCCCc1ccnnc1)c1ccc2nc(N3CCCCC3)c(-c3ccc(F)cc3)nc2c1 [Compound I-103, 3-(4-fluorophenyl)-2-(piperidin-1-yl)-N-[3-(pyridazin-4-yl)propyl]quinoxaline-6-carboxamide] | 58 | < 100 | 96 |  | 
10 | O=C(NCCCc1ncc[nH]1)c1ccc2nc(N3CCOCC3)c(-c3ccc(Cl)cc3)nc2c1 [Compound I-104, 3-(4-chlorophenyl)-N-[3-(1H-imidazol-2-yl)propyl]-2-(morpholin-4-yl)quinoxaline-6-carboxamide] | 2 | < 100 | 100 |  | 
11 | O=C(NCCCn1ccnc1)c1ccc2nc(N3CCC(O)CC3)c(-c3ccccc3)nc2c1 [Compound I-105, 2-(4-hydroxypiperidin-1-yl)-N-[3-(1H-imidazol-1-yl)propyl]-3-phenylquinoxaline-6-carboxamide] |  | < 100 | 92 | -7 | 
12 | N#CC1CCN(c2nc3ccc(C(=O)NCCCn4ccnc4)cc3nc2-c2ccccc2)C1 (stereo not drawn) [Compound I-106, 2-(3-cyanopyrrolidin-1-yl)-N-[3-(1H-imidazol-1-yl)propyl]-3-phenylquinoxaline-6-carboxamide] |  | 500 to 1000 | 60 | -5 | 
13 | O=C(NCCCn1ccnc1)c1ccc2nc(-c3ccco3)c(-c3ccco3)nc2c1 [Compound I-107, 2,3-di(2-furyl)-N-[3-(1H-imidazol-1-yl)propyl]quinoxaline-6-carboxamide] |  | 1000 to 2000 | 47 | 102 | 
14 | Cn1ccc(CCNC(=O)c2ccc3nc(-c4ccc(F)cc4)c(-c4ccc(F)cc4)nc3c2)n1 [Compound I-108, 2,3-bis(4-fluorophenyl)-N-[2-(1-methyl-1H-pyrazol-3-yl)ethyl]quinoxaline-6-carboxamide] |  | 1000 to 2000 | 44 | 93 | 
15 | COc1nc2ccc(C(=O)NCCCc3ncc[nH]3)cc2nc1-c1ccc(Cl)cc1 [Compound I-109, 3-(4-chlorophenyl)-N-[3-(1H-imidazol-2-yl)propyl]-2-methoxyquinoxaline-6-carboxamide] | 36 | < 100 | 97 |  | 
16 | O=C(NCCCc1ncc[nH]1)c1ccc2nc(OC3CCOCC3)c(-c3ccc(Cl)cc3)nc2c1 [Compound I-111, 3-(4-chlorophenyl)-N-[3-(1H-imidazol-2-yl)propyl]-2-(tetrahydro-2H-pyran-4-yloxy)quinoxaline-6-carboxamide] | 2 | < 100 | 99 |  | 
17 | O=C(NCCCn1ccnc1)c1ccc2nc(N3CCC(N4CCNCC4)CC3)c(-c3ccccc3)nc2c1 [Compound I-112, N-[3-(1H-imidazol-1-yl)propyl]-3-phenyl-2-[4-(piperazin-1-yl)piperidin-1-yl]quinoxaline-6-carboxamide] |  | < 100 | 100 | -1 | 
18 | CC1(C)CN(c2nc3cc(C(=O)NCCCn4ccnc4)ccc3nc2-c2ccccc2)CCO1 [Compound I-113, 3-(2,2-dimethylmorpholin-4-yl)-N-[3-(1H-imidazol-1-yl)propyl]-2-phenylquinoxaline-6-carboxamide] |  | 500 to 1000 | 64 | -8 | 
19 | O=C(NCCOc1cccnc1)c1ccc2nc(N3CCC(O)CC3)c(-c3ccc(F)cc3)nc2c1 [Compound I-114, 3-(4-Fluorophenyl)-2-(4-hydroxypiperidin-1-yl)-N-[2-(pyridin-3-yloxy)ethyl]quinoxaline-6-carboxamide] | 2 | < 100 |  |  | > 99
20 | C[C@@H]1CN(c2nc3ccc(C(=O)NCCCn4ccnc4)cc3nc2-c2ccccc2)C[C@H](C)O1 [Compound I-115, cis-2-[(2R,6S)-2,6-dimethylmorpholin-4-yl]-N-[3-(1H-imidazol-1-yl)propyl]-3-phenylquinoxaline-6-carboxamide] |  | < 100 | 100 | -8 | 
21 | O=C(NCCCc1ncc[nH]1)c1ccc2nc(N3CCCC3)c(-c3ccc(Cl)cc3)nc2c1 [Compound I-116, 3-(4-chlorophenyl)-N-[3-(1H-imidazol-2-yl)propyl]-2-(pyrrolidin-1-yl)quinoxaline-6-carboxamide] | 2 | < 100 | 98 |  | 
22 | O=C(NCCc1cccnc1)c1ccc2nc(-c3ccco3)c(-c3ccco3)nc2c1 [Compound I-117, 2,3-di(2-furyl)-N-[2-(pyridin-3-yl)ethyl]quinoxaline-6-carboxamide] |  | 2000 to 10000 | 22 | 97 | 
23 | O=C(NCCc1c[nH]cn1)c1ccc2nc(-c3ccccc3)c(-c3ccccc3)nc2c1 [Compound I-118, N-[2-(1H-imidazol-4-yl)ethyl]-2,3-diphenylquinoxaline-6-carboxamide] |  | 2000 to 10000 | 29 | 85 | 
24 | Cn1cc(-c2nc3ccc(C(=O)NCCCn4ccnc4)cc3nc2-c2ccccc2)cn1 [Compound I-119, N-[3-(1H-imidazol-1-yl)propyl]-2-(1-methyl-1H-pyrazol-4-yl)-3-phenylquinoxaline-6-carboxamide] |  | 500 to 1000 | 58 | -8 | 
25 | NCc1cccc(-c2nc3cc(C(=O)NCCCn4ccnc4)ccc3nc2-c2ccccc2)c1 [Compound I-120, 3-[3-(Aminomethyl)phenyl]-N-[3-(1H-imidazol-1-yl)propyl]-2-phenylquinoxaline-6-carboxamide] |  | 2000 to 10000 |  | 1 | 47
26 | O=C(c1ccc2nc(-c3ccc(F)cc3)c(-c3ccc(F)cc3)nc2c1)N1CCc2nc[nH]c2C1 [Compound I-121, [2,3-bis(4-fluorophenyl)quinoxalin-6-yl](3,4,6,7-tetrahydro-5H-imidazo[4,5-c]pyridin-5-yl)methanone] |  | 2000 to 10000 | 12 | 99 | 
27 | O=C(NCCc1ncc[nH]1)c1ccc2nc(-c3ccc(F)cc3)c(-c3ccc(F)cc3)nc2c1 [Compound I-122, 2,3-Bis(4-fluorophenyl)-N-[2-(1H-imidazol-2-yl)ethyl]quinoxaline-6-carboxamide] | 4 | 2000 to 10000 | 60 |  | 
28 | NC(=O)c1cn2c(n1)CN(C(=O)c1ccc3nc(-c4ccc(F)cc4)c(-c4ccc(F)cc4)nc3c1)CC2 [Compound I-123, 7-{[2,3-bis(4-fluorophenyl)quinoxalin-6-yl]carbonyl}-5,6,7,8-tetrahydroimidazo[1,2-a]pyrazine-2-carboxamide] |  | 2000 to 10000 | 31 | 96 | 
